Experimental data reported in patent US6855730B2, “3-methylidenyl-2-indolinone modulators of protein kinase” (Sugen, Inc., priority 1998, dated 2005).

Assays:
PDGFR-β = molecular target: T1, PDGFR-β (Homo sapiens, UniProt P09619); assay: Biochemical PDGFR assay (ELISA, PDGFR-β expressing NIH 3T3 cell lysate); details: read-out: bio PDGF IC50
T1 construct: host or cells: NIH 3T3
Outline: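 Phosphorylation was read by ELISA (anti-phosphotyrosine serum, peroxidase secondary, ABTS at 410 nm) after a 30 min room-temperature reaction with 20 μM ATP, EDTA-stopped. Kinase was lysate-derived PDGFR-β (NIH 3T3) immobilised via 28D4C10 antibody, compound added 30 min before ATP.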

pyk2 = pyk2 (Homo sapiens, UniProt Q14289); assay: bio pyk2 assay; format: biochemical
flkGST = molecular target: T2, flkGST (Homo sapiens, UniProt P35968); assay: bio flkGST assay; format: biochemical
T2 construct: GST

EGFR = EGFR (Homo sapiens, UniProt P00533); assay: Biochemical EGFR assay (ELISA, A431 cell lysate); parameters: A431 cell lysate (Screening Lab, SUGEN, Inc.); host or cells: A431; details: read-out: bio EGFr IC50
Method: This assay measures the in vitro kinase activity of EGFR using ELISA.
Materials and Reagents • 1. […] SUMO1 monoclonal anti-EGFR antibody (Biochemistry Lab, SUGEN, Inc.). • 3. PBS (Dulbecco's Phosphate-Buffered Saline, Gibco Catalog No. 450-1300EB). • 4. TBST Buffer
• 6. A431 cell lysate (Screening Lab, SUGEN, Inc.) • 7. TBS Buffer:
Prepare a 1.0 mM solution in dH2O. This reagent should be made up immediately prior to use and kept on ice. • 10. MnCl2.
Prepare a 1.0 M stock solution in dH2O. • 11. ATP/MnCl2 phosphorylation mix
This reagent should be prepared immediately before use and kept on ice. • 12. NUNC 96-well V bottom polypropylene plates (Applied Scientific Cat. No. AS-72092). • 13. Ethylenediaminetetraacetic acid (EDTA)
Prepare 200 mM working solution in dH2O. Adjust to pH 8.0 with 10 N NaOH. • 14. Rabbit polyclonal anti-phosphotyrosine serum (Biochemistry Lab, SUGEN, Inc.) • 15. Goat anti-rabbit IgG peroxidase conjugate (Biosource Cat. No. ALI0404) • 16. ABTS (2,2′-azino-bis(3-ethylbenzthiazoline-6-sulfonic acid), Sigma Cat. No. A-1888).
Mix first two ingredients in about 900 ml dH2O, adjust pH to 4.0 with phosphoric acid. Add ABTS, cover, let sit about 0.5 hr., filter. The solution should be kept in the dark at 4° C. until ready to use. • 17. Hydrogen peroxide 30% solution (Fisher Cat. No. H325) • 18. ABTS/H2O2 • Mix 15 ml ABTS solution and 2.0 μl H2O2. Prepare 5 minutes before use. • 19. 0.2 M HCl
Procedure • 1. Coat Corning 96 well ELISA plates with 0.5 μg SUMO1 in 100 μl PBS per well, store overnight at 4° C. • 2. Remove unbound SUMO1 from wells by inverting plate to remove liquid., Wash 1× with dH2O. Pat the plate on a paper towel to remove excess liquid. • 3. Add 150 μl of Blocking Buffer to each well. Incubate for 30 min. at room temperature with shaking. • 4. Wash plate 3× with deionized water, then once with TBST. Pat plate on a paper towel to remove excess liquid and bubbles. • 5. Dilute lysate in PBS (7 μg lysate/100 μl PBS). • 6. Add 100 μl of diluted lysate to each well. Shake at room temperature for 60 min. • 7. Wash plates as described in 4, above. • 8. Add 120 μl TBS to ELISA plate containing captured EGFR. • 9. Dilute test compound 1:10 in TBS in 96-well polypropylene plates (i.e. 10 μl compound+90 μl TBS). • 10. Add 13.5 μl diluted test compound to ELISA plate. […] Incubate for 30 minutes while shaking at room temperature. • 12. […] After 5 minutes, stop reaction by adding 16.5 μl of 200 mM EDTA (pH 8.0) to each well, shaking continuously. After the EDTA has been added, shake for 1 min. • 14. Wash 4× with deionized water, twice with TBST. • 15. Add 100 μl anti-phosphotyrosine (1:3000 dilution in TBST) per well. Incubate 30-45 min. at room temperature, with shaking. • 16. Wash as described in 4, above. • 17. Add 100 μl Biosource Goat anti-rabbit IgG peroxidase conjugate (1:2000 dilution in TBST) to each well. Incubate 30 min. at room temperature, with shaking. • 18. Wash as described in 4, above. • 19. Add 100 μl of ABTS/H2O2 solution to each well. • 20. Incubate 5 to 10 minutes with shaking. Remove any bubbles. • 21. If necessary stop reaction with the addition of 100 μl 1 0.2 M HCl per well. • 22. Read assay on Dynatech MR7000 ELISA reader. Test Filter: 410 nM Reference Filter: 630 Nm.

[1] = molecular target: Myc-GyrB-FGFR fusion protein (Homo sapiens, UniProt P11362); assay: Biochemical FGFR assay (ELISA); details: read-out: bio fgfR1 IC50
Sequence of Myc-GyrB-FGFR fusion protein (P11362 478-767 limits assumed): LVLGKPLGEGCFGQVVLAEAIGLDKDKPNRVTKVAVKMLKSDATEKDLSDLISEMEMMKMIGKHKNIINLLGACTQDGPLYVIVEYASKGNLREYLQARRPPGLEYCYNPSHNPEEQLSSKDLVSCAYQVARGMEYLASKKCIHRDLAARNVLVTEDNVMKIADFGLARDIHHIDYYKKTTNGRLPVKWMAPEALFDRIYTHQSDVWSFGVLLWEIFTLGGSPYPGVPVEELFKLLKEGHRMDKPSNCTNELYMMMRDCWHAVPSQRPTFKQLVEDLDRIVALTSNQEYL

T2 sequence (P35968 786-1356 limits assumed): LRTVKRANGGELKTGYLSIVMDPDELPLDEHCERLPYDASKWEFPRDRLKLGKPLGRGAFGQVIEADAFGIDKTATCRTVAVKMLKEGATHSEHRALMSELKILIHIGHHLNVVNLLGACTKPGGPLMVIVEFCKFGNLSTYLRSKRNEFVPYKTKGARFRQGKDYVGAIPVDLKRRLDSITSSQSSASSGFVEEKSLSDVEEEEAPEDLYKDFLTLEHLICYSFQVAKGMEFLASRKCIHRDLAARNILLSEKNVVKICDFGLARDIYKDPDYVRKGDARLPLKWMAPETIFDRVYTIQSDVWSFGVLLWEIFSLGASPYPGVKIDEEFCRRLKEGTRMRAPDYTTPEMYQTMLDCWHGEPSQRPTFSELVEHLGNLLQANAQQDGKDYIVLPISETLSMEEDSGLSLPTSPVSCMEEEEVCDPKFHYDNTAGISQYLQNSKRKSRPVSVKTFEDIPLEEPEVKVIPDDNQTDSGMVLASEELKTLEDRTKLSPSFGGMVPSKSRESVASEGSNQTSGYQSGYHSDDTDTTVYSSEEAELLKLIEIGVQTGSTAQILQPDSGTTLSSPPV
T1 sequence (P09619 33-1106): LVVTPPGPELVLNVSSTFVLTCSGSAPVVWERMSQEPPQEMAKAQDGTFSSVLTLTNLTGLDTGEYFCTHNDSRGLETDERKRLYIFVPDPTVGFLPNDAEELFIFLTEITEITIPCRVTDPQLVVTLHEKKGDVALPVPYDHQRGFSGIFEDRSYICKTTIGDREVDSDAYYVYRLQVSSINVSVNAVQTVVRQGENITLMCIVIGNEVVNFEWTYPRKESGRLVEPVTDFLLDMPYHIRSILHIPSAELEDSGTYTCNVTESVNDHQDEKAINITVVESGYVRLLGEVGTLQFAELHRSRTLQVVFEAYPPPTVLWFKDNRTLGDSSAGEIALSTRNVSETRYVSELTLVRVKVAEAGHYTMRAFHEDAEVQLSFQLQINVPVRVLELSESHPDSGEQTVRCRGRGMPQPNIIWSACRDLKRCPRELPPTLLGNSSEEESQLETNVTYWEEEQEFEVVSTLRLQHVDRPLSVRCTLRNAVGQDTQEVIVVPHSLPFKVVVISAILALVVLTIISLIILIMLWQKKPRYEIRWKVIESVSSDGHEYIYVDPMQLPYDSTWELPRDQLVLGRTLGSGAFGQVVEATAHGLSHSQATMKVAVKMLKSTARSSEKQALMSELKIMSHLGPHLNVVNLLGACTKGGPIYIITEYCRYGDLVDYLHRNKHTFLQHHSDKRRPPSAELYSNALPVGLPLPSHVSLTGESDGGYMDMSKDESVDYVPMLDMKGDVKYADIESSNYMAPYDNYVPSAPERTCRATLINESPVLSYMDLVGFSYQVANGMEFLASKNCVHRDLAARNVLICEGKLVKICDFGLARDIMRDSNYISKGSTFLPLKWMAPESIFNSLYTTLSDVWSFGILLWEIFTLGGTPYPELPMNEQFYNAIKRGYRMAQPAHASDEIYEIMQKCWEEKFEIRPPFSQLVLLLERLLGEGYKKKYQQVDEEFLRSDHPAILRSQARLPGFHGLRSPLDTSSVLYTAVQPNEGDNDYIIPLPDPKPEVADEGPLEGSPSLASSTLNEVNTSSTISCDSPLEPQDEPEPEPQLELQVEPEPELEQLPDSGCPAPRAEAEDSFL
Sequence of pyk2 (Q14289 whole entry, species assumed): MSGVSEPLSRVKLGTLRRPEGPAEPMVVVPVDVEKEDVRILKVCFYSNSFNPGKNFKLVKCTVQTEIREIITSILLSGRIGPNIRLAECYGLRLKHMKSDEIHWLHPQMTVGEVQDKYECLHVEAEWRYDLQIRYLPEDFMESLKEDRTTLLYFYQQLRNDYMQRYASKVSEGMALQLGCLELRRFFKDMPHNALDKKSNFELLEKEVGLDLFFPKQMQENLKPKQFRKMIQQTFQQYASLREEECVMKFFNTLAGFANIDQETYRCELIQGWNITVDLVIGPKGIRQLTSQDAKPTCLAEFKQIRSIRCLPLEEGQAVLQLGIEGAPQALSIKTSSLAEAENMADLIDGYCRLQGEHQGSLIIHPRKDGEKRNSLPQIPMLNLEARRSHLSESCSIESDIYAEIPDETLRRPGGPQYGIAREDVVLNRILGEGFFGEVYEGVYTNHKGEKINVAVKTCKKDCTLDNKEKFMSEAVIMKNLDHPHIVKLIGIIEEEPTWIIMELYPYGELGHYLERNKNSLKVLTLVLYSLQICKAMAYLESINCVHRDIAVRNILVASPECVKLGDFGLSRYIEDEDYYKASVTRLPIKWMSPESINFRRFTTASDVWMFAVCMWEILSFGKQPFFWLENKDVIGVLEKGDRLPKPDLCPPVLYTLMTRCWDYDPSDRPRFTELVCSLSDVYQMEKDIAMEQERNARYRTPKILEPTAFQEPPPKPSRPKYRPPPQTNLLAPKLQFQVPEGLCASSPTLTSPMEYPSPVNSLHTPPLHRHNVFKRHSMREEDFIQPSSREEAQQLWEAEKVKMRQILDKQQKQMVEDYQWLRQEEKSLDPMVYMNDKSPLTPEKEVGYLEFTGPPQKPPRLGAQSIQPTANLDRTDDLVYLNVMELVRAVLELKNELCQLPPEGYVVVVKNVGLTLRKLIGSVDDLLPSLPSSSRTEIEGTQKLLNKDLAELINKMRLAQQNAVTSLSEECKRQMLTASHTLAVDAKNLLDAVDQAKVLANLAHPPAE
Sequence of EGFR (P00533 25-1210): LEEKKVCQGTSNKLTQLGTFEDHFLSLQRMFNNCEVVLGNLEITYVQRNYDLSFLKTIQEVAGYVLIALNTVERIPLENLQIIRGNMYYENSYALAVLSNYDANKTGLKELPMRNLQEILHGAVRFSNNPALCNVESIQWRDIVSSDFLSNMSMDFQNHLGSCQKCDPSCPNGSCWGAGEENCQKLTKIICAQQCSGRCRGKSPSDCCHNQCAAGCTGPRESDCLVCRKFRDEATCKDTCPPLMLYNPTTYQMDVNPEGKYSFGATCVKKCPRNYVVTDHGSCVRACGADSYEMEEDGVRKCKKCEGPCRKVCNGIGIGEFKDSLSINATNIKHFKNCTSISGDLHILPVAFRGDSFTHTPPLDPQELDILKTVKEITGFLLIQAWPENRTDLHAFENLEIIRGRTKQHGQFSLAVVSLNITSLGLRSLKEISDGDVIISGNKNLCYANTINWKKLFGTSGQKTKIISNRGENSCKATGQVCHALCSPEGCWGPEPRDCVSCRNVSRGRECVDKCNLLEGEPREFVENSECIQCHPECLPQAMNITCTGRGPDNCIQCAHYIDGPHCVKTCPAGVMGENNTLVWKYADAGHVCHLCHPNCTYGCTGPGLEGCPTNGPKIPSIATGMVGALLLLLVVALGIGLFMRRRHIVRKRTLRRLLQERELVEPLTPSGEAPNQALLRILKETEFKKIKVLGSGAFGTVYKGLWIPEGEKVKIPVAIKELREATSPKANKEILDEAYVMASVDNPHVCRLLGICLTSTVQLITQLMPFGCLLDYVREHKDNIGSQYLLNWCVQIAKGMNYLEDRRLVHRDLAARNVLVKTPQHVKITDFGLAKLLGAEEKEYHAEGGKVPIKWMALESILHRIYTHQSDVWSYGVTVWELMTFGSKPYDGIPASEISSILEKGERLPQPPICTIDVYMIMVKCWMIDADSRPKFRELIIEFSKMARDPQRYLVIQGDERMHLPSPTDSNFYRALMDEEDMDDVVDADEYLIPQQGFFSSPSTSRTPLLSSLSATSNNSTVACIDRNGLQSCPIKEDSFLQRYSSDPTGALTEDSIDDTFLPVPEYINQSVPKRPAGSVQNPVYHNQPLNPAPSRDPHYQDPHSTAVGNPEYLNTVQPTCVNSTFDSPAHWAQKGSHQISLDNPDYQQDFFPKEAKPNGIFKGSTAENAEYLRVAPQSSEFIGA

SMILES	IC50 (PDGFR-β)	IC50 (pyk2)	IC50 (flkGST)	IC50 (EGFR)	IC50 [1]
CCOC(=O)c1[nH]c(/C=C2\C(=O)Nc3cc(Br)ccc32)c(CCC(=O)O)c1C [Example 142, 5-(6-Bromo-2-oxo-1,2-dihydroindol-3-ylidenemethyl)-4-(2-carboxy-ethyl)-3-methyl-1H-pyrrole-2-carboxylic acid ethyl ester]	> 100 µM		21.1 µM	> 100 µM	5.9 µM
CCOC(=O)c1[nH]c(/C=C2\C(=O)Nc3ccc(Br)cc32)c(CCC(=O)O)c1C [Example 143, 5-(5-Bromo-2-oxo-1,2-dihydroindol-3-ylidenemethyl)-4-(2-carboxy-ethyl)-3-methyl-1H-pyrrole-2-carboxylic acid ethyl ester]	> 100 µM		26.9 µM	> 100 µM	16.6 µM
CCOC(=O)c1[nH]c(/C=C2\C(=O)Nc3ccc(OC)cc32)c(CCC(=O)O)c1C [Example 140, 4-(2-Carboxyethyl)-5-(5-methoxy-2-oxo-1,2-dihydroindol-3-ylidenemethyl)-3-methyl-1H-pyrrole-2-carboxylic acid ethyl ester]	> 100 µM		6.65 µM	> 100 µM	12.8 µM
CCOC(=O)c1[nH]c(/C=C2\C(=O)Nc3ccc(S(=O)(=O)N(C)C)cc32)c(CCC(=O)O)c1C [Example 147, 4-(2-Carboxyethyl)-5-(5-dimethylsulfamoyl-2-oxo-1,2-dihydro-indol-3-ylidenemethyl)-3-methyl-1H-pyrrole-2-carboxylic acid ethyl ester]	> 100 µM		15.3 µM	> 100 µM	> 20 µM
CCOC(=O)c1c(C)[nH]c(/C=C2\C(=O)Nc3ccc(S(=O)(=O)NC)cc32)c1CCCN1CCN(C)CC1 [Example 119, 2-Methyl-4-[3-(4-methylpiperazin-1-yl)-propyl]-5-(5-methylsulfamoyl-2-oxo-1,2-dihydroindol-3-ylidenemethyl)-1H-pyrrole-3-carboxylic acid ethyl ester]	> 100 µM	2.02 µM	6.33 µM		
CCOC(=O)c1[nH]c(/C=C2\C(=O)Nc3ccc(S(=O)(=O)NC(C)C)cc32)c(CCC(=O)O)c1C [Example 148, 4-(2-Carboxyethyl)-5-(5-isopropylsulfamoyl-2-oxo-1,2-dihydro-indol-3-ylidenemethyl)-3-methyl-1H-pyrrole-2-carboxylic acid ethyl ester]	> 100 µM		23.9 µM	> 100 µM	> 20 µM
CCOC(=O)c1[nH]c(/C=C2\C(=O)Nc3ccc(S(=O)(=O)NC)cc32)c(CCC(=O)O)c1C [Example 146]	> 100 µM		15.6 µM	> 100 µM	> 20 µM
CCOC(=O)c1[nH]c(C=C2C(=O)Nc3ccc(S(N)(=O)=O)cc32)c(CCC(=O)O)c1C [Example 145, 4-(2-Carboxyethyl)-3-methyl-5-(2-oxo-5-sulfamoyl-1,2-dihydro-indol-3-ylidenemethyl)-1H-pyrrole-2-carboxylic acid ethyl ester]	> 100 µM		11.8 µM	> 100 µM	15.6 µM
CCOC(=O)c1[nH]c(/C=C2\C(=O)Nc3cccc(C)c32)c(CCC(=O)O)c1C [Example 139, 4-(2-Carboxyethyl)-3-methyl-5-(4-methyl-2-oxo-1,2-dihydroindol-3-ylidenemethyl)-1H-pyrrole-2-carboxylic acid ethyl ester]	> 100 µM		7.56 µM	> 100 µM	12.6 µM

Second part, the compound after the results:

IC50 (PDGFR-β)	IC50 (pyk2)	IC50 (flkGST)	IC50 (EGFR)	IC50 [1]	SMILES
0.34 µM	0.01 µM	0.2 µM			CN(C)CCCc1c(/C=C2\C(=O)Nc3cccc(CCO)c32)[nH]c2ccccc12 [Example 150, 3-[3-(3-Dimethylaminopropyl)-1H-indol-2-ylmethylene]-4-(2-hydroxyethyl)-1,3-dihydroindol-2-one]
15.2 µM	4.71 µM	16.9 µM			CCOC(=O)c1c(C)[nH]c(/C=C2\C(=O)Nc3ccc(S(N)(=O)=O)cc32)c1CCCN1CCOCC1 [Example 123, 2-Methyl-4-(3-morpholin-4-ylpropyl)-5-(2-oxo-5-sulfamoyl-1,2-dihydroindol-3-ylidenemethyl)-1H-pyrrole-3-carboxylic acid ethyl ester]
> 100 µM	4.24 µM	9.29 µM			CCOC(=O)c1c(C)[nH]c(/C=C2\C(=O)Nc3ccc(S(=O)(=O)NC)cc32)c1CCCN1CCOCC1 [Example 118, 2-Methyl-5-(5-methylsulfamoyl-2-oxo-1,2-dihydroindol-3-ylidenemethyl)-4-(3-morpholin-4-ylpropyl)-1H-pyrrole-3-carboxylic acid ethyl ester]
85.1 µM		11.5 µM	> 100 µM	8.38 µM	CCOC(=O)c1[nH]c(/C=C2\C(=O)Nc3cc(OC)ccc32)c(CCC(=O)O)c1C [Example 141, 4-(2-Carboxyethyl)-5-(6-methoxy-2-oxo-1,2-dihydroindol-3-ylidenemethyl)-3-methyl-1H-pyrrole-2-carboxylic acid ethyl ester]
0.65 µM	0.22 µM				CCOC(=O)c1c(C)[nH]c(/C=C2\C(=O)Nc3cccc(CCO)c32)c1CCCN1CCCC1 [Example 132, 5-[4-(2-Hydroxyethyl)-2-oxo-1,2-dihydroindol-3-ylidenemethyl]-2-methyl-4-(3-pyrrolidin-1-ylpropyl)-1H-pyrrole-3-carboxylic acid ethyl ester]
> 100 µM		9.03 µM	> 100 µM	2.77 µM	CCOC(=O)c1[nH]c(/C=C2\C(=O)Nc3cc(-c4ccccc4)ccc32)c(CCC(=O)O)c1C [Example 144, 4-(2-Carboxyethyl)-3-methyl-5-(2-oxo-6-phenyl-1,2-dihydroindol-3-ylidenemethyl)-1H-pyrrole-2-carboxylic acid ethyl ester]
0.02 µM		2.36 µM	> 100 µM	> 20 µM	CCOC(=O)c1c(C)[nH]c(/C=C2\C(=O)Nc3ccc(Cl)cc32)c1CCC(=O)O [Example 112, 4-(2-Carboxyethyl)-5-(5-chloro-2-oxo-1,2-dihydroindol-3-ylidenemethyl)-2-methyl-1H-pyrrole-3-carboxylic acid ethyl ester]
23.2 µM	2.18 µM				CCOC(=O)c1c(C)[nH]c(/C=C2\C(=O)Nc3cccc(CCO)c32)c1CCCN1CCOCC1 [Example 131, 5-[4-(2-Hydroxyethyl)-2-oxo-1,2-dihydroindol-3-ylidenemethyl]-2-methyl-4-(3-morpholin-4-ylpropyl)-1H-pyrrole-3-carboxylic acid ethyl ester]
